# Key:
# HeLa cells = assay: Determination of cellular production of lactate (GC/MS); format: cell-based; settings: 8 hours, concentrations from 50 to 200 μM, comparable or superior to 2-DeoxGlu at 10 mM
# A549 cells = assay: Inhibition of tumor cell growth method (b), CellTiter-Glo; format: cell-based; settings: Homo sapiens, A549, 72 h
# From the text: (§1) CellTiter-Glo® Luminescent Cell Viability Assay (Promega) is a homogeneous method of determining the number of viable cells in culture based on quantitation of the present ATP, which indicates the presence of metabolically active cells. The homogeneous assay procedure involves addition of a single reagent (CellTiter-Glo® Reagent) directly to the cells, which leads to cell lysis and generation of a luminescent signal proportional to the amount of the ATP and the number of cells present in culture. The assay relies on the properties of a proprietary thermostable luciferase (Ultra-Glo® recombinant luciferase), which generates a luminescent signal.
# (§2) After 72 h, a volume of CellTiter-Glo® Reagent equal to the volume of cell culture medium was added. The content was mixed for 2 min to induce cell lysis. The luminescence was recorded after further 10 min at RT in order to obtain a stable luminescent signal.
# (§3) The IC50 was calculated using GraphPad Software.
# H1975 = assay: as above; format: cell-based; settings: Homo sapiens, NCI-H1975, H1975, 72 h
# From the text: as §1, §2, §3
# hLDH5 (LDH-A) = target: T1, hLDH5 (LDH-A) (Homo sapiens, UniProt P00338); assay: Enzyme inhibition of human lactate dehydrogenase isoform 5; format: biochemical; settings: ranges of values, pH 7.4; for Ki: 37° C., read-out: inhibitory activity against hLDH5 (Ki); for IC50: room temperature, read-out: inhibitory activity against hLDH5 (IC50)
# T1 construct: purchased LEEBIO (USA)
# Method: The compounds described in the examples were evaluated in enzymatic assays to assess its inhibitory properties against two human isoforms of lactate dehydrogenase, hLDH5 containing solely the subunit LDH-A (LEEBIO—USA), and the hLDH1 containing only the LDH subunits-B (Sigma Aldrich, USA), in order to verify the selectivity of these compounds.
# (for Ki measurements). Such assays were conducted in cells containing 200 μL of a solution comprising the reagents dissolved in phosphate buffer (KH2PO4 and K2HPO4) at pH 7.4.
# IC50 values were calculated as described below. […] Seven different concentrations (in duplicate for each concentration) of compound were used to generate a concentration-response curve. […] Compound solutions were dispensed in 96-well plates (8 μL), then substrate and cofactor dissolved in buffer (152 μl) and enzyme solution (40 μl) were finally added. Dilution of the enzyme stock solution was made to allow a 10% consumption of the cofactor after 15 min. The eventual background fluorescence of the tested compounds or quenching of the NADH fluorescence by the tested compounds was subtracted. In addition to the compound test wells, each plate contained maximum and minimum controls. Assay plates were incubated at room temperature for 15 min and the final measurements were performed using Victor X3 Microplates reader (PerkinElmer®) at a fluorescence emission wavelength of 460 nm (excitation at 340 nm). IC50 were generated using the curve-fitting tool of GraphPad Prism].
# The resulting data of enzymatic kinetic (the constants of Michaelis-Menten) were determined by analysis of non-linear regression.
Structure (SMILES),reduction of cellular production of lactate (HeLa cells),IC50 (A549 cells) [µM],IC50 (H1975) [µM],Ki (hLDH5 (LDH-A)) [µM],IC50 (hLDH5 (LDH-A)) [µM]
"CC(C)OC(=O)c1cc2c(C(F)(F)F)cc(-c3ccccc3)cc2n1O [Example 23, isopropyl 1-hydroxy-6-phenyl-4-(trifluoromethyl)-1H-indole-2-carboxylate]",reduce effectively cellular production of lactate,≤ 31,≤ 31,1 to 10,
"O=C(O)c1cc2c(C(F)(F)F)cc(-c3ccccc3OC(F)(F)F)cc2n1O [Example 35, 1-hydroxy-6-(2-(trifluoromethoxy)phenyl)-4-(trifluoromethyl)-1H-indole-2-carboxylic acid]",,≤ 31,≤ 31,5 to 25,
"O=C(O)c1cc2c(C(F)(F)F)cc(-c3cccc(OC(F)(F)F)c3)cc2n1O [Example 25, 1-hydroxy-4-(trifluoromethyl)-6-(3-(trifluoromethoxy)phenyl)-1H-indole-2-carboxylic acid]",,≤ 31,,1 to 10,
"COC(=O)c1cc2c(F)cc(-c3ccc(Cl)cc3Cl)cc2n1O [Example 53, methyl 6-(2,4-dichlorophenyl)-4-fluoro-1-hydroxy-1H-indole-2-carboxylate]",,≤ 31,≤ 31,5 to 25,
"CCCCOC(=O)c1cc2c(C(F)(F)F)cc(-c3ccc(Cl)cc3Cl)cc2n1O [Example 33, butyl 6-(2,4-dichlorophenyl)-1-hydroxy-4-(trifluoromethyl)-1H-indole-2-carboxylate]",reduce effectively cellular production of lactate,,,,0.01 to 1
"COC(=O)c1cc2c(C(F)(F)F)cc(-c3ccccc3)cc2n1O[C@H]1O[C@H](CO)[C@@H](O)[C@H](O)[C@@H]1O [Example 41, methyl 1-(α-d-mannopyranosyl)oxy-6-phenyl-4-(trifluoromethyl)-1H-indole-2-carboxylate]",reduce effectively cellular production of lactate,,,,
"O=C(OCc1ccccc1)c1cc2c(C(F)(F)F)cc(-c3ccccc3)cc2n1O [Example 48, benzyl 1-hydroxy-6-phenyl-4-(trifluoromethyl)-1H-indole-2-carboxylate]",,≤ 31,≤ 31,0.5 to 5,
"COC(=O)c1cc2c(C(F)(F)F)cc(-c3ccccc3)cc2n1O[C@@H]1O[C@H](CO)[C@H](O)[C@@H](O)[C@H]1O [Example 40, methyl 1-(β-d-gulopyranosyl)oxy-6-phenyl-4-(trifluoromethyl)-1H-indole-2-carboxylate]",reduce effectively cellular production of lactate,,,,
"COC(=O)c1cc2c(C(F)(F)F)cc(-c3cc(Cl)cc(Cl)c3)cc2n1O [Example 42, methyl 6-(3,5-dichlorophenyl)-1-hydroxy-4-(trifluoromethyl)-1H-indole-2-carboxylate]",,≤ 31,≤ 31,1 to 10,
"COC(=O)c1cc2c(C(F)(F)F)cc(-c3cccc(OC(F)(F)F)c3)cc2n1O [Example 19, methyl 1-hydroxy-4-(trifluoromethyl)-6-(3-(trifluoromethoxy)phenyl)-1H-indole-2-carboxylate]",,≤ 31,≤ 31,1 to 10,
"COC(=O)c1cc2c(C(F)(F)F)cc(-c3ccc(Cl)cc3Cl)cc2n1O[C@@H]1O[C@H](COC(C)=O)[C@@H](OC(C)=O)[C@H](OC(C)=O)[C@H]1OC(C)=O [Example 11, methyl 6-(2,4-dichlorophenyl)-1-(β-d-2,3,4,6-tetra-O-acetylglucopyranosyl)oxy-4-(trifluoromethyl)-1H-indole-2-carboxylate]",,,,,> 100
"O=C(OCc1ccc(C(F)(F)F)cc1)c1cc2c(C(F)(F)F)cc(-c3ccc(Cl)cc3Cl)cc2n1O [Example 64, 4-(trifluoromethyl)benzyl 6-(2,4-dichlorophenyl)-1-hydroxy-4-(trifluoromethyl)-1H-indole-2-carboxylate]",,,,,0.01 to 1
"COC(=O)c1cc2c(C(F)(F)F)cc(-c3ccccc3OC(F)(F)F)cc2n1O [Example 34, methyl 1-hydroxy-6-(2-(trifluoromethoxy)phenyl)-4-(trifluoromethyl)-1H-indole-2-carboxylate]",,≤ 31,≤ 31,5 to 25,
"COC(=O)c1cc2c(C(F)(F)F)cc(-c3cc(Cl)ccc3Cl)cc2n1O [Example 38, methyl 6-(2,5-dichlorophenyl)-1-hydroxy-4-(trifluoromethyl)-1H-indole-2-carboxylate]",,≤ 31,≤ 31,5 to 25,
"CCCCOC(=O)c1cc2c(C(F)(F)F)cc(-c3ccccc3)cc2n1O [Example 22, butyl 1-hydroxy-6-phenyl-4-(trifluoromethyl)-1H-indole-2-carboxylate]",reduce effectively cellular production of lactate,≤ 31,≤ 31,0.5 to 5,
"COC(=O)c1cc2c(C(F)(F)F)cc(-c3cccc(Cl)c3Cl)cc2n1O [Example 36, methyl 6-(2,3-dichlorophenyl)-1-hydroxy-4-(trifluoromethyl)-1H-indole-2-carboxylate]",,≤ 31,≤ 31,1 to 10,
"CN1CCC(OC(=O)c2cc3c(C(F)(F)F)cc(-c4ccc(Cl)cc4Cl)cc3n2O)CC1 [Example 58, 1-methylpiperidin-4-yl 6-(2,4-dichlorophenyl)-1-hydroxy-4-(trifluoromethyl)-1H-indole-2-carboxylate]",,,,,> 100
"O=C(O)c1cc2c(C(F)(F)F)cc(-c3cc(Cl)cc(Cl)c3)cc2n1O [Example 43, 6-(3,5-dichlorophenyl)-1-hydroxy-4-(trifluoromethyl)-1H-indole-2-carboxylic acid]",,≤ 31,,1 to 10,
"Cc1c(C(=O)O)n(O)c2cc(-c3ccc(Cl)cc3Cl)cc(C(F)(F)F)c12 [Example 26, 6-(2,4-dichlorophenyl)-1-hydroxy-3-methyl-4-(trifluoromethyl)-1H-indole-2-carboxylic acid]",,,,,1 to 10
"COC(=O)c1c(C)c2c(C(F)(F)F)cc(-c3ccccc3)cc2n1O [Example 16, methyl 1-hydroxy-6-phenyl-3-methyl-4-(trifluoromethyl)-1H-indole-2-carboxylate]",,,,,1 to 10
"CC(C)OC(=O)c1cc2c(C(F)(F)F)cc(-c3ccc(Cl)cc3Cl)cc2n1O [Example 32, isopropyl 6-(2,4-dichlorophenyl)-1-hydroxy-4-(trifluoromethyl)-1H-indole-2-carboxylate]",reduce effectively cellular production of lactate,≤ 31,≤ 31,0.5 to 5,
"CC(C)OC(=O)c1cc2c(C(F)(F)F)cc(-c3ccccc3)cc2n1O[C@@H]1O[C@H](CO)[C@@H](O)[C@H](O)[C@H]1O [Example 31, isopropyl 1-(β-D-glucopyranosyl)oxy-6-phenyl-4-(trifluoromethyl)-1H-indole-2-carboxylate]",reduce effectively cellular production of lactate,,,,50 to 500
"CCOC(=O)c1cc2c(C(F)(F)F)cc(-c3ccc(Cl)cc3Cl)cc2n1O [Example 9, ethyl 6-(2,4-dichloropheyl)-1-hydroxy-4-(trifluoromethyl)-1H-indole-2-carboxylate]",reduce effectively cellular production of lactate,≤ 31,≤ 31,1 to 10,
"COC(=O)c1cc2c(C(F)(F)F)cc(-c3ccccc3)cc2n1O[C@@H]1O[C@H](COC(C)=O)[C@@H](OC(C)=O)[C@H](OC(C)=O)[C@H]1OC(C)=O [Example 5, methyl 6-phenyl-1-(β-d-2,3,4,6-tetra-O-acetylglucopyranosyl)oxy-4-(trifluoromethyl)-1H-indole-2-carboxylate]",,,,,50 to 500
